From EP4803513A1, “SUBSTITUTED QUINAZOLINE COMPOUND, PREPARATION METHOD THEREFOR, PHARMACEUTICAL COMBINATION THEREOF, AND USE THEREOF” (Hongyun Biotech Co., Ltd., priority 2023, dated 2025)

Key:
WT-BaF3 cells = assay: Cell antiproliferative activity assay (CCK-8), WT-BaF3 (broad-spectrum cytotoxicity); format: cell-based; conditions: 72 h; WT-BaF3 cells (IL-3 supplemented), CCK-8, 3 days incubation
Description: (§1) The activity of compounds against BRK kinase can be evaluated by their inhibition of the growth of the BRK kinase-stably transfected BaF3 cell line (BRK-BaF3) and wild-type BaF3 cells (WT-BaF3). […] The larger the ratio of the half-maximal growth inhibitory concentration (IC50) of a compound between WT-BaF3 and BRK-BaF3 cells, the better the selectivity of the compound.
(§2) BRK-BaF3, WT-BaF3, WEHI cell line, and breast cancer cell line T47D were cultured using RPMI 1640 Basal medium or DMEM (Dulbecco's Modified Eagle Medium) (Shanghai Peiyuan Biotechnology, L220KJ), supplemented with 10% FBS (Gibco, REF 10099-141C) and 1% P/S (Shanghai Peiyuan Biotechnology, S110JV), in an incubator (Thermo 3020) at 37°C with 5% CO2. Cell viability was above 95%. Cells were passaged at a 3:1 ratio every 3-4 days. For WT-BaF3 cells, WEHI cells were first cultured, and their culture supernatant was filtered through a 0.22 µm filter. This supernatant was added at 10% to the regular culture medium to supplement IL-3 required for WT-BaF3 cell proliferation, which served as the culture medium for WT-BaF3. For testing, cells were first collected and counted, then prepared into a cell suspension at 100,000 cells/mL and plated at 100 µL per well. Drug concentrations started from 10 µM and were serially diluted 3:1. After incubation for 3 days, 20 µL of CCK-8 detection reagent (Targetmol C005) was added to each well. After incubation for 2-4 hours, OD450 was measured using a microplate reader (Varioskan LUX, Thermo Scientific). After subtracting the blank background, the curve was fitted and the IC50 was calculated using XLfit software.

BRK-BaF3 cells = assay: Cell antiproliferative activity assay (CCK-8), BRK-BaF3; format: cell-based; conditions: 72 h, CCK-8, 3 days incubation
Description: as §1, §2

Row | SMILES | IC50 (WT-BaF3 cells) | IC50 (BRK-BaF3 cells)
1 | Cc1nn(CCO)cc1Nc1ncc2cc(-c3nccnc3Cl)cc(C3CC3)c2n1 [I-104] | > 2500 nM | ≤ 20 nM
2 | Cc1nn(CCO)cc1Nc1ncc2cc(-c3c(Cl)ccnc3N)cc(C(C)C)c2n1 [I-49] | > 2500 nM | ≤ 20 nM
3 | Cc1nn(CCO)cc1Nc1ncc2cc(-c3cnccc3F)cc(C(C)C)c2n1 [I-31] | > 2500 nM | ≤ 20 nM
4 | Cc1nccnc1-c1cc(C2CC2)c2nc(Nc3ccc(P(C)(C)=O)cc3F)ncc2c1 [II-31] | > 2500 nM | ≤ 20 nM
5 | COc1cc(P(C)(C)=O)ccc1Nc1ncc2cc(-c3nccnc3C)cc(C(C)C)c2n1 [II-14] | > 2500 nM | ≤ 20 nM
6 | Cc1cc(P(C)(C)=O)ncc1Nc1ncc2cc(-c3nccnc3C)cc(C(C)C)c2n1 [II-4] | > 2500 nM | 20 to 100 nM
7 | COCCn1cc(Nc2ncc3cc(-c4c(C)ncnc4C)cc(C(C)C)c3n2)c(C)n1 [III-94] | > 2500 nM | ≤ 20 nM
8 | Cc1nn(CCN)cc1Nc1ncc2cc(-c3nccnc3C)cc(C(C)C)c2n1 [III-108] | 100 to 500 nM | ≤ 20 nM
9 | Cc1ccnc(N)c1-c1cc(C(C)C)c2nc(Nc3cn(CCO)nc3C)ncc2c1 [I-50] | > 2500 nM | ≤ 20 nM
10 | Cc1nn(CCO)cc1Nc1ncc2cc(-c3cncnc3N)cc(C(C)C)c2n1 [I-124] | > 2500 nM | 20 to 100 nM
11 | Cc1nn(CC(N)=O)cc1Nc1ncc2cc(-c3nccnc3C)cc(C(C)C)c2n1 [III-111] | > 2500 nM | ≤ 20 nM
12 | COc1nc(P(C)(C)=O)ccc1Nc1ncc2cc(-c3nccnc3C)cc(C(C)C)c2n1 [II-2] | > 2500 nM | ≤ 20 nM
13 | Cc1nccnc1-c1cc(C(F)(F)F)c2nc(Nc3ccc(P(C)(C)=O)cc3F)ncc2c1 [II-35] | > 2500 nM | 20 to 100 nM
14 | Cc1nn(CCO)cc1Nc1ncc2cc(-c3cncnc3)cc(C(C)C)c2n1 [I-123] | 500 to 2500 nM | 20 to 100 nM
15 | Cc1nn(CCO)cc1Nc1ncc2cc(-c3ccccn3)cc(C(F)(F)F)c2n1 [I-9] | > 2500 nM | ≤ 20 nM
16 | Cc1cccnc1-c1cc(C(C)C)c2nc(Nc3cn(CCO)nc3C)ncc2c1 [I-3] | > 2500 nM | ≤ 20 nM
17 | Cc1nn(CCO)cc1Nc1ncc2cc(-c3cc(C#N)cnc3C)cc(C(C)C)c2n1 [I-42] | > 2500 nM | ≤ 20 nM
18 | COCCN(C)CCn1cc(Nc2ncc3cc(-c4nccnc4C)cc(C(C)C)c3n2)c(C)n1 [III-110] | > 2500 nM | ≤ 20 nM
19 | Cc1nccnc1-c1cc(C2CC2)c2nc(Nc3ccc(P(C)(C)=O)c(O)c3)ncc2c1 [II-75] | > 2500 nM | ≤ 20 nM
20 | Cc1nn(CCO)cc1Nc1ncc2cc(-c3nccnc3N)cc(C(C)C)c2n1 [I-84] | > 2500 nM | ≤ 20 nM
21 | COc1cc(Nc2ncc3cc(-c4nccnc4C)cc(C(C)C)c3n2)cnc1P(C)(C)=O [II-7] | 500 to 2500 nM | 20 to 100 nM
22 | Cc1nccnc1-c1cc(C(C)C)c2nc(Nc3cnn(CCO)c3C)ncc2c1 [I-102] | > 2500 nM | ≤ 20 nM
23 | Cc1nn(CC(N)=O)cc1Nc1ncc2cc(-c3cncnc3C)cc(C(C)C)c2n1 [III-96] | > 2500 nM | 20 to 100 nM

Row | SMILES | IC50 (WT-BaF3 cells) | IC50 (BRK-BaF3 cells)
24 | Cc1nccnc1-c1cc(C)c2nc(Nc3ccc(P(C)(C)=O)cc3)ncc2c1 [II-68] | > 2500 nM | 20 to 100 nM
25 | Cc1ncccc1-c1cc(C(C)C)c2nc(Nc3cnn(CCO)c3C)ncc2c1 [I-66] | 500 to 2500 nM | 20 to 100 nM
26 | Cc1nn(CCO)cc1Nc1ncc2cc(-c3c(C)ncnc3N)cc(C(C)C)c2n1 [I-129] | > 2500 nM | 20 to 100 nM
27 | Cc1nn(CCO)cc1Nc1ncc2cc(-c3ccncc3)cc(C(C)C)c2n1 [I-10] | 500 to 2500 nM | 20 to 100 nM
28 | Cc1nn(C)cc1Nc1ncc2cc(-c3cncc(F)c3C(N)=O)cc(C(C)C)c2n1 [III-127] | > 2500 nM | 20 to 100 nM
29 | Cc1ccnc(C)c1-c1cc(C(C)C)c2nc(Nc3cn(CCO)nc3C)ncc2c1 [I-47] | 500 to 2500 nM | ≤ 20 nM
30 | Cc1nccnc1-c1cc(C(C)C)c2nc(Nc3ccc(P(C)(C)=O)nc3)ncc2c1 [II-3] | > 2500 nM | ≤ 20 nM
31 | Cc1ncnc(C)c1-c1cc(C(C)C)c2nc(Nc3cn(CCO)nc3C(F)F)ncc2c1 [I-141] | > 2500 nM | 20 to 100 nM
32 | COc1ncccc1-c1cc(C(C)C)c2nc(Nc3cn(CCO)nc3C)ncc2c1 [I-25] | > 2500 nM | ≤ 20 nM
33 | Cc1ncnc(C)c1-c1cc(C(C)C)c2nc(Nc3ccc(P(C)(C)=O)cc3)ncc2c1 [II-50] | > 2500 nM | 20 to 100 nM
34 | Cc1nccnc1-c1cc(C2CC2)c2nc(Nc3cc(O)c(P(C)(C)=O)cc3F)ncc2c1 [II-76] | > 2500 nM | ≤ 20 nM
35 | Cc1cnccc1-c1cc(C(C)C)c2nc(Nc3cn(CCO)nc3C)ncc2c1 [I-12] | 500 to 2500 nM | ≤ 20 nM
36 | Cc1nn(CCO)cc1Nc1ncc2cc(-c3c(C)ncnc3Cl)cc(C(C)C)c2n1 [I-127] | > 2500 nM | ≤ 20 nM
37 | Cc1nn(CCO)cc1Nc1ncc2cc(-c3cncnc3)cc(C(F)(F)F)c2n1 [I-151] | > 2500 nM | 20 to 100 nM
38 | Cc1cncc(-c2cc(C(C)C)c3nc(Nc4cn(CCO)nc4C)ncc3c2)n1 [I-90] | 500 to 2500 nM | ≤ 20 nM
39 | Cc1nn(CCO)cc1Nc1ncc2cc(-c3cc(F)cnc3F)cc(C(C)C)c2n1 [I-40] | > 2500 nM | ≤ 20 nM
40 | Cc1nn(CCO)cc1Nc1ncc2cc(-c3c(C)ncnc3O)cc(C(C)C)c2n1 [I-130] | > 2500 nM | 20 to 100 nM
41 | Cc1nn(C2COC2)cc1Nc1ncc2cc(-c3nccnc3C)cc(C3CC3)c2n1 [III-113] | 500 to 2500 nM | ≤ 20 nM
42 | COc1ncncc1-c1cc(C(F)(F)F)c2nc(Nc3cn(CCO)nc3C)ncc2c1 [I-153] | > 2500 nM | ≤ 20 nM
43 | Cc1c(Nc2ncc3cc(-c4cnccc4C#N)cc(C(C)C)c3n2)cnn1CCO [I-63] |  | 20 to 100 nM
44 | Cc1c[nH]c(=O)cc1-c1cc(C(C)C)c2nc(Nc3cn(C4CCN(C)C4)nc3C)ncc2c1 (centres unmarked) [III-38] |  | ≤ 20 nM
45 | Cc1c[nH]c(=O)cc1-c1cc(C(C)C)c2nc(Nc3cn(CC(=O)NCCF)nc3C)ncc2c1 [III-70] |  | 20 to 100 nM
46 | Cc1c[nH]c(=O)cc1-c1cc(C(C)C)c2nc(Nc3cn(C)nc3Cl)ncc2c1 [III-5] |  | ≤ 20 nM

Row | SMILES | IC50 (WT-BaF3 cells) | IC50 (BRK-BaF3 cells)
47 | Cc1nn(CCO)cc1Nc1ncc2cc(-c3ccnc(F)c3F)cc(C(C)C)c2n1 [I-15] |  | 20 to 100 nM
48 | Cc1c[nH]c(=O)cc1-c1cc(C(C)C)c2nc(Nc3cn(C(F)F)nc3C)ncc2c1 [III-7] |  | ≤ 20 nM
49 | CCc1ncccc1-c1cc(C(C)C)c2nc(Nc3cn(CCO)nc3C)ncc2c1 [I-24] |  | ≤ 20 nM
50 | Cc1nn(CCO)cc1Nc1ncc2cc(-c3cc(F)cc(F)c3)cc(C(C)C)c2n1 [I-158] |  | ≤ 20 nM
51 | Cc1c[nH]c(=O)cc1-c1cc(C(C)C)c2nc(Nc3cn([C@@H](C)C(=O)N(C)C)nc3C)ncc2c1 [III-48] |  | ≤ 20 nM
52 | Cc1c[nH]c(=O)cc1-c1cc(C(C)C)c2nc(Nc3cn(C4CCN(C(C)C)CC4)nc3C)ncc2c1 [III-16] |  | ≤ 20 nM
53 | Cc1c[nH]c(=O)cc1-c1cc(C(C)C)c2nc(Nc3cn(CC(=O)NC4CC4)nc3C)ncc2c1 [III-73] |  | 20 to 100 nM
54 | CCn1cc(Nc2ncc3cc(-c4cc(=O)[nH]cc4C)cc(C(C)C)c3n2)c(C)n1 [III-12] |  | ≤ 20 nM
55 | Cc1c[nH]c(=O)cc1-c1cc(C(C)C)c2nc(Nc3cnn(CCO)c3)ncc2c1 [I-174] |  | ≤ 20 nM
56 | Cc1c[nH]c(=O)cc1-c1cc(C2CC2)c2nc(Nc3cnn(C)c3C)ncc2c1 [III-81] |  | ≤ 20 nM
57 | Cc1c[nH]c(=O)cc1-c1cc(C(C)C)c2nc(Nc3cn(C4CCN(C5COC5)CC4)nc3C)ncc2c1 [III-18] |  | 20 to 100 nM
58 | Cc1c[nH]c(=O)cc1-c1cc(C(C)C)c2nc(Nc3cnn(CCN(C)CC(C)(C)O)c3C)ncc2c1 [III-57] |  | ≤ 20 nM
59 | COCCN(C)CCn1ncc(Nc2ncc3cc(-c4cc(=O)[nH]cc4C)cc(C(C)C)c3n2)c1C [III-55] |  | ≤ 20 nM
60 | Cc1c[nH]c(=O)cc1-c1cc(C(C)C)c2nc(Nc3cnn(C4CCN(C(C)C)CC4)c3C)ncc2c1 [III-17] |  | ≤ 20 nM
61 | CCN(C)CCn1cc(Nc2ncc3cc(-c4cc(=O)[nH]cc4C)cc(C(C)C)c3n2)c(C)n1 [III-51] |  | ≤ 20 nM
62 | COc1cncc(-c2cc(C(C)C)c3nc(Nc4cn(CCO)nc4C)ncc3c2)n1 [I-91] |  | 20 to 100 nM
63 | Cc1c[nH]c(=O)cc1-c1cc(C2CC2)c2nc(Nc3cn(C4COC4)nc3C)ncc2c1 [III-82] |  | ≤ 20 nM
64 | Cc1cccnc1-c1cc(C(C)C)c2nc(Nc3cn(C)nc3C)ncc2c1 [III-119] |  | ≤ 20 nM
65 | CCc1c(Nc2ncc3cc(-c4cc(=O)[nH]cc4C)cc(C(C)C)c3n2)cnn1C1CCN(C)CC1 [III-30] |  | ≤ 20 nM
66 | CCc1nn(C2CCN(C)CC2)cc1Nc1ncc2cc(-c3cc(=O)[nH]cc3C)cc(C(C)C)c2n1 [III-29] |  | ≤ 20 nM
67 | Cc1c[nH]c(=O)cc1-c1cc(C(C)C)c2nc(Nc3cn([C@@H]4C[C@H]5CC[C@@H](C4)N5C)nc3C)ncc2c1 [III-25] |  | 20 to 100 nM
68 | Cc1nn(CCO)cc1Nc1ncc2cc(-c3cc(F)ncc3F)cc(C(C)C)c2n1 [I-16] |  | ≤ 20 nM
